In article PMC4850295, “Using a Genetically Encoded Sensor to Identify Inhibitors of Toxoplasma gondii Ca^2+ Signaling” (The Journal of Biological Chemistry, 2016):

The molecules below were run on T1, GCaMP5-expressing T. gondii. Details: 100 uM zaprinast stimulation, 10 min pretreatment, mean of two replicates, 0.23 h, 10 µM.
T1 construct: whole extracellular parasites expressing GCaMP5 Ca2+ sensor
Set-up: species or system GCaMP5-expressing Toxoplasma gondii, extracellular; GCaMP5 fluorescence (cytosolic Ca2+) after 100 uM zaprinast in compound-pretreated extracellular parasites, background-subtracted, relative to zaprinast alone
How it was run: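 Extracellular GCaMP5-expressing parasites in Ringer's solution were pretreated with compounds (single 10 μM dose, two biological replicates) for 10 min, then stimulated with 100 μM zaprinast at 37 °C for 4 min. Fluorescence read at 485/525 nm, basal subtracted, expressed as fold change relative to zaprinast-only parasites.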
For `Nc1ncnc2occ(-c3ccc(NC(=O)Nc4cc(C(F)(F)F)ccc4F)cc3)c12` [GW770249A], the “fold change in fluorescence relative to zaprinast alone” value was 0.2788.

Same assay, conditions: 100 uM zaprinast stimulation; 10 min pretreatment; mean of two replicates; 0.23 h
`C#Cc1cccc(Nc2ncnc3ccc(OCCCCNCCS(C)(=O)=O)cc23)c1` [GW680191X] was tested, and the “fold change in fluorescence relative to zaprinast alone” value was 1.038. For `COc1cccc(-c2cc(-c3cn[nH]c3-c3ccccn3)ccn2)c1` [GW680338X], the “fold change in fluorescence relative to zaprinast alone” value was 0.8974. For `COC(=O)Nc1nc2ccc(Oc3ccc(CC(=O)Nc4cc(C(F)(F)F)ccc4F)cc3)cc2[nH]1` [GW680903X], the “fold change in fluorescence relative to zaprinast alone” value was 1.756. In the case of `COC(=O)Nc1nc2ccc(S(=O)(=O)c3ccc(NC(=O)Nc4cc(C(F)(F)F)ccc4F)cc3)cc2[nH]1` [GW680908A], the “fold change in fluorescence relative to zaprinast alone” value was 1.018. For `Fc1ccc(-c2cc(-c3c[nH]nc3-c3ccccn3)ccn2)cc1` [GW680975X], the “fold change in fluorescence relative to zaprinast alone” value was 1.061. `COC(=O)Nc1nc2ccc(Oc3ccc(NC(=O)Nc4cc(C(F)(F)F)ccc4F)cn3)cc2[nH]1` [GW681170A] was tested, and the “fold change in fluorescence relative to zaprinast alone” value was 1.637. In the case of `Clc1ccc(-c2cc(-c3cn[nH]c3-c3ccccn3)ccn2)cc1` [GW681251X], the “fold change in fluorescence relative to zaprinast alone” value was 1.448. For `Cc1[nH]nc2cc(Nc3ccnc(Nc4cccc(CN5CCOCC5)c4)n3)ccc12` [GW682569X], the “fold change in fluorescence relative to zaprinast alone” value was 1.452. For `CC(C)c1ccc(-c2cc(-c3c[nH]nc3-c3ccccn3)ccn2)cc1` [GW682841X], the “fold change in fluorescence relative to zaprinast alone” value was 1.973. In the case of `O=C(Nc1ccc(Oc2ccc3[nH]c(NC(=O)c4ccco4)nc3c2)cc1)Nc1cc(C(F)(F)F)ccc1F` [GW683134A], the “fold change in fluorescence relative to zaprinast alone” value was 1.019. For `Nc1nc(-c2cccnc2)c(-c2ccnc3ccccc23)s1` [GW684083X], the “fold change in fluorescence relative to zaprinast alone” value was 0.9409. For `CCCCc1nn2ncccc2c1-c1ccnc(NC2CC2)n1` [GW684374X], the “fold change in fluorescence relative to zaprinast alone” value was 0.8894. In the case of `Fc1cccc(COc2ccc(Nc3ncnc4sc(-c5cccs5)cc34)cc2Cl)c1` [GW684626B], the “fold change in fluorescence relative to zaprinast alone” value was 0.9792. `CCCCc1nn2ncccc2c1-c1ccnc(Nc2ccc(N3CCN(C)CC3)cc2)n1` [GW684941X] was tested, and the “fold change in fluorescence relative to zaprinast alone” value was 0.4893. In the case of `COC(=O)Nc1nc2ccc(Oc3ccc(NC(=O)Nc4cc(C(F)(F)F)ccc4F)cc3)cc2n1C` [GW692089A], the “fold change in fluorescence relative to zaprinast alone” value was 1.505. In the case of `N#Cc1ccc(-c2cc(-c3cn[nH]c3-c3ccccn3)ccn2)cc1` [GW693028X], the “fold change in fluorescence relative to zaprinast alone” value was 1.123. With `Nc1nc(-c2ccccn2)c(-c2ccc3ncccc3n2)s1` [GW693481X] the “fold change in fluorescence relative to zaprinast alone” value was 1.166. With `Nc1nc(-c2nccs2)c(-c2ccnc3ccccc23)s1` [GW693542X] the “fold change in fluorescence relative to zaprinast alone” value was 0.8815. With `c1ccc(-c2[nH]ncc2Nc2ccnc3ccccc23)nc1` [GW694077X] the “fold change in fluorescence relative to zaprinast alone” value was 1.237. With `COC(=O)Nc1nc2cc(Oc3ccc(NC(=O)Nc4cccc(Br)c4)cc3)ccc2[nH]1` [GW694234A] the “fold change in fluorescence relative to zaprinast alone” value was 0.8976. With `COC(=O)Nc1nc2cc(Oc3ccc(NC(=O)Nc4ccccc4)cc3)ccc2[nH]1` [GW694590A] the “fold change in fluorescence relative to zaprinast alone” value was 1.127. `c1ccc(-c2n[nH]cc2-c2ccnc(-c3ccc(OCCN4CCOCC4)cc3)c2)nc1` [GW695874X] was tested, and the “fold change in fluorescence relative to zaprinast alone” value was 1.104. `CC(C)Oc1ccc2c(-c3ccnc(Nc4ccc(N5CCN(C)CC5)cc4)n3)cnn2n1` [GW696155X] was tested, and the “fold change in fluorescence relative to zaprinast alone” value was 0.6015. For `COC(=O)Nc1nc2ccc(Oc3ccc(NC(=O)Nc4cc(C(F)(F)F)ccc4Cl)cc3)cc2[nH]1` [GW697465A], the “fold change in fluorescence relative to zaprinast alone” value was 0.849. With `COC(=O)Nc1nc2ccc(Oc3ccc(NC(=O)Nc4cccc(SC)c4)cc3)cc2[nH]1` [GW697999A] the “fold change in fluorescence relative to zaprinast alone” value was 1.427. With `COc1ccc(CNC(=O)c2ccc(-c3cc(-c4nnc(C)o4)ccc3C)cc2)cc1` [GW701032X] the “fold change in fluorescence relative to zaprinast alone” value was 1.056. In the case of `COC(=O)Nc1nc2ccc(Oc3ccc(NC(=O)Nc4cc(F)ccc4F)cc3)cc2[nH]1` [GW701424A], the “fold change in fluorescence relative to zaprinast alone” value was 1.084. `COC(=O)Nc1nc2cc(Oc3ccc(NC(=O)Nc4cccc(C(=O)O)c4)cc3)ccc2[nH]1` [GW701427A] was tested, and the “fold change in fluorescence relative to zaprinast alone” value was 1.188. For `Cc1nnc(-c2ccc(C)c(-c3ccc(C(=O)Nc4ccc(NS(C)(=O)=O)cc4)cc3)c2)o1` [GW702865X], the “fold change in fluorescence relative to zaprinast alone” value was 1.258. With `CC(=O)Nc1cccc(C#Cc2cncnc2Nc2ccc(OCc3cccc(F)c3)c(Cl)c2)c1` [GW703087X] the “fold change in fluorescence relative to zaprinast alone” value was 1.104. `Fc1cccc(COc2ccc(Nc3ncnc4sc(-c5ccc[nH]5)cc34)cc2Cl)c1` [GW707818B] was tested, and the “fold change in fluorescence relative to zaprinast alone” value was 0.2741. With `c1cc(-c2cnn3nc(N4CCOCC4)ccc23)nc(NC2CC2)n1` [GW708336X] the “fold change in fluorescence relative to zaprinast alone” value was 0.6756. For `Cc1nnc(-c2ccc(C)c(-c3ccc(C(=O)NCc4ccc(Cl)cc4)cc3)c2)o1` [GW708893X], the “fold change in fluorescence relative to zaprinast alone” value was 1.038. For `O=C(Nc1ccc(Oc2ccc3[nH]c(NC(=O)c4ccccc4)nc3c2)cc1)Nc1cc(C(F)(F)F)ccc1F` [GW709042A], the “fold change in fluorescence relative to zaprinast alone” value was 1.07. `FC(F)(F)c1ccc(/C=C/c2cncnc2Nc2ccc3nc(Cc4ccccc4)[nH]c3c2)cc1` [GW709199X] was tested, and the “fold change in fluorescence relative to zaprinast alone” value was 1.132. For `c1ccc(-c2[nH]ncc2-c2ccnc(-c3ccc(CNC4CCOCC4)cc3)c2)nc1` [GW709213X], the “fold change in fluorescence relative to zaprinast alone” value was 1.08. For `c1ccc(-c2n[nH]cc2-c2ccnc(-c3ccc(OCCn4ccnc4)cc3)c2)nc1` [GW711782X], the “fold change in fluorescence relative to zaprinast alone” value was 1.163. `Cc1ccc(NC(=O)c2ccoc2)cc1-c1ccc(C(=O)NCC2CC2)cc1` [GW743024X] was tested, and the “fold change in fluorescence relative to zaprinast alone” value was 1.222. `NC(=O)c1cccc(Nc2nccc(Nc3cccc(F)c3)n2)c1` [GW759710A] was tested, and the “fold change in fluorescence relative to zaprinast alone” value was 1.166. With `CN(C)CC(O)COc1ccc(Nc2nccc(-c3cnn4nc(N5CCOCC5)ccc34)n2)cc1` (centres unmarked) [GW767488X] the “fold change in fluorescence relative to zaprinast alone” value was 0.9765. With `CN1CCN(CCNc2nc3ccc(Oc4ccc(NC(=O)Nc5cc(C(F)(F)F)ccc5F)cc4)cc3[nH]2)CC1` [GW768504A] the “fold change in fluorescence relative to zaprinast alone” value was 0.9512. With `Cc1ccc(NC(=O)c2ccnc(N3CCCC3)c2)cc1-c1ccc(C(=O)NCC2CC2)cc1` [GW769076X] the “fold change in fluorescence relative to zaprinast alone” value was 1.128. For `Cc1c2ccc(N(C)c3ccnc(Nc4cccc(S(N)(=O)=O)c4)n3)cc2nn1C` [GW771127A], the “fold change in fluorescence relative to zaprinast alone” value was 1.211. In the case of `Cc1ccc(NC(=O)c2ccnc(N3CCN(C)CC3)c2)cc1-c1ccc(C(=O)NCC2CC2)cc1` [GW775604X], the “fold change in fluorescence relative to zaprinast alone” value was 1.197. With `Cc1ccc(NC(=O)c2ccnc(N3CCCCC3)c2)cc1-c1ccc(C(=O)NCC2CC2)cc1` [GW775610X] the “fold change in fluorescence relative to zaprinast alone” value was 1.448. With `c1ccc(-c2[nH]ncc2-c2ccnc(-c3ccc(CN4CCOCC4)cc3)c2)nc1` [GW776245A] the “fold change in fluorescence relative to zaprinast alone” value was 1.036. In the case of `Cc1ccnc2ccc(-c3sc(N)nc3-c3ccccn3)nc12` [GW777257X], the “fold change in fluorescence relative to zaprinast alone” value was 1.011. With `N#Cc1cccc(Nc2nccc(-c3cnn4ncccc34)n2)c1` [GW778894X] the “fold change in fluorescence relative to zaprinast alone” value was 0.1658. With `CCN(CC)Cc1ccc(Nc2nccc(-c3cnn4ncccc34)n2)cc1` [GW780056X] the “fold change in fluorescence relative to zaprinast alone” value was 0.8961. For `C=CC(=O)Nc1cc2c(Nc3ccc(F)c(Cl)c3)ncnc2cc1OCCCN1CCOCC1` [GW781483X], the “fold change in fluorescence relative to zaprinast alone” value was 1.29. `Clc1ccc(CNc2nccc(-c3cnn4ncccc34)n2)cc1` [GW781673X] was tested, and the “fold change in fluorescence relative to zaprinast alone” value was 0.7156. In the case of `NC(=O)c1cccc(Nc2nccc(Nc3cccc4[nH]ncc34)n2)c1` [GW782612X], the “fold change in fluorescence relative to zaprinast alone” value was 1.061. In the case of `Cc1ccc(C(=O)NC2CCCCC2)cc1-c1ccc(C(=O)NCC2CC2)cc1` [GW782907X], the “fold change in fluorescence relative to zaprinast alone” value was 1.25. With `Cc1ccc(C(=O)NC2CCC2)cc1-c1ccc(C(=O)NCC2CC2)cc1` [GW782912X] the “fold change in fluorescence relative to zaprinast alone” value was 1.104. With `COc1ccc(C)c(Nc2ccnc(Nc3ccc(-c4cnc[nH]4)cc3)n2)c1` [GW784041A] the “fold change in fluorescence relative to zaprinast alone” value was 1.009. With `COc1cccc(-n2ncc3c(N/N=C/c4ccc(C(=O)NCCN(C)C)cc4)ncnc32)c1` [GW784307A] the “fold change in fluorescence relative to zaprinast alone” value was 0.4737. In the case of `COc1cccc(-n2ncc3c(N/N=C/c4ccncc4)ncnc32)c1` [GW784752X], the “fold change in fluorescence relative to zaprinast alone” value was 1.109. `Nc1nc(-c2ccc(F)cc2)c(-c2ccc3ncccc3n2)s1` [GW785804X] was tested, and the “fold change in fluorescence relative to zaprinast alone” value was 1.356. For `Cc1ccc(C(=O)NC(C)C)cc1-c1ccc(C(=O)NCC2CC2)cc1` [GW785974X], the “fold change in fluorescence relative to zaprinast alone” value was 1.119. For `Cc1cccc(-c2n[nH]cc2-c2ccc3ncccc3n2)n1` [GW786460X], the “fold change in fluorescence relative to zaprinast alone” value was 1.226. With `Cc1c2ccc(N(C)c3ccnc(Nc4cccc(S(N)(=O)=O)c4)n3)cc2nn1Cc1ccccc1` [GW787226A] the “fold change in fluorescence relative to zaprinast alone” value was 1.348. With `CCCNc1cccc(-n2ncc3c(N/N=C/c4ccncc4)ncnc32)c1` [GW794607X] the “fold change in fluorescence relative to zaprinast alone” value was 0.688. `Nc1ncnc2occ(-c3ccc(NC(=O)Nc4cc(C(F)(F)F)cc(C(F)(F)F)c4)cc3)c12` [GW795486X] was tested, and the “fold change in fluorescence relative to zaprinast alone” value was 0.08819. In the case of `Cc1ccc(NC(=O)CC2CC2)cc1-c1ccc(C(=O)NCC2CC2)cc1` [GW796920X], the “fold change in fluorescence relative to zaprinast alone” value was 1.231. `Nc1nccc(C#Cc2cncnc2Nc2ccc(OCc3cccc(F)c3)c(Cl)c2)n1` [GW799251X] was tested, and the “fold change in fluorescence relative to zaprinast alone” value was 1.079. `Cc1ccc(C(=O)NC2CCCC2)cc1-c1ccc(C(=O)NCC2CC2)cc1` [GW800172X] was tested, and the “fold change in fluorescence relative to zaprinast alone” value was 1.109. With `COc1cc(Nc2nccc(-c3cnn4ncccc34)n2)cc(OC)c1` [GW801372X] the “fold change in fluorescence relative to zaprinast alone” value was 0.4013.
